From patent US10093630B2, “Pyrazole compounds and methods of making and using same” (ABIDE THERAPEUTICS, INC., priority 2014, dated 2018)

How the values were obtained:
Experiment in all cases: In vitro competitive activity-based protein profiling (gel-based, FP-Rh or HT-01 probe)
Assay type in all cases: biochemical
MAGL = biological target: T1, MAGL (Mus musculus, UniProt O35678); settings: 1 μM inhibitor; gel-based competitive ABPP
T1 construct: Proteomes (mouse brain membrane fraction or cell lysates); from tissue; host or cells: mouse brain membrane fraction (or cell lysates, not specified)
T1 sequence (O35678 1-303): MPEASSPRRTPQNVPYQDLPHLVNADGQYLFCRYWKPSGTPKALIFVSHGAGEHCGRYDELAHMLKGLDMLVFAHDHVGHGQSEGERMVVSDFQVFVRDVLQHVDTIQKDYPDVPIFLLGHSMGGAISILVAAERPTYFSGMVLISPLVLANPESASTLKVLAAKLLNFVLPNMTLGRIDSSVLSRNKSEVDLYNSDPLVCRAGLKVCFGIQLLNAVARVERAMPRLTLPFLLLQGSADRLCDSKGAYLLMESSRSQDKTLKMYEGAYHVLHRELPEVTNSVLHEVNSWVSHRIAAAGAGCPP
Summary of the method: (§1)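 Read-out: fluorescent band intensity on SDS-PAGE gels, reporting remaining serine hydrolase activity. Before that, proteome (mouse brain membranes or cell lysates, 1.0 mg/mL) saw a range of inhibitor concentrations for 30 min at 37° C, followed by 30 min probe labelling (FP-Rh or HT-01).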

ABHD6 = biological target: T2, ABHD6 (Mus musculus, UniProt Q8R2Y0); settings: 1 μM inhibitor; gel-based competitive ABPP; read-out: % Inhibition at 1 μM, C = ABHD6
T2 construct: Proteomes (mouse brain membrane fraction or cell lysates); from tissue; host or cells: mouse brain membrane fraction (or cell lysates, not specified)
T2 sequence (Q8R2Y0 1-336): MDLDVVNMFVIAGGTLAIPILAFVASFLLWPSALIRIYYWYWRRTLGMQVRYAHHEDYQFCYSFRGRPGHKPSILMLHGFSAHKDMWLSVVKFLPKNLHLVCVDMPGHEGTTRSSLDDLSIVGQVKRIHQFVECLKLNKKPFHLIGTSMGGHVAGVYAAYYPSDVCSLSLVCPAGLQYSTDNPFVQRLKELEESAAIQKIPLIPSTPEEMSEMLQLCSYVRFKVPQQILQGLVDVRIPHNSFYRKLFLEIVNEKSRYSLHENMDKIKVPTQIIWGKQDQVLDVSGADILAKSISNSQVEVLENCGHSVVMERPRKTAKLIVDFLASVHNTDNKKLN
Summary of the method: as §1

FAAH = biological target: T3, FAAH (Mus musculus, UniProt O08914); settings: 1 μM inhibitor; gel-based competitive ABPP; read-out: % Inhibition at 1 μM, B = FAAH
T3 construct: Proteomes (mouse brain membrane fraction or cell lysates); from tissue; host or cells: mouse brain membrane fraction (or cell lysates, not specified)
T3 sequence (O08914 1-579): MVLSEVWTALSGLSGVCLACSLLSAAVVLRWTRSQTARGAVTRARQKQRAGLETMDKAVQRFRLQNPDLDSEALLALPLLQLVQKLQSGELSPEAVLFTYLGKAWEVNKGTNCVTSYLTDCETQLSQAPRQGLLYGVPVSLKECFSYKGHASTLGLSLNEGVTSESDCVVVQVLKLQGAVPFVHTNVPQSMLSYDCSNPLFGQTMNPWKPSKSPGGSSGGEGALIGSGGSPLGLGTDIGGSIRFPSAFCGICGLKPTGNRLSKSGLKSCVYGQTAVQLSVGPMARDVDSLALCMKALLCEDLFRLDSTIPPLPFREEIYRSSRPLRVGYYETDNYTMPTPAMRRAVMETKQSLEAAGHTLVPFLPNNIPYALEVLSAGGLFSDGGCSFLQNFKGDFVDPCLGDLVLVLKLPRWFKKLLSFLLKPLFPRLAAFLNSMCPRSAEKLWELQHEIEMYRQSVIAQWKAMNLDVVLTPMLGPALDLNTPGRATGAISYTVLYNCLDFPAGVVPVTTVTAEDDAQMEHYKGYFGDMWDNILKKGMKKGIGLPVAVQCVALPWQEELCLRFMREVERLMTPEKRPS
Summary of the method: as §1

PLA2G7 = biological target: T4, PLA2G7 (Mus musculus, UniProt Q60963); settings: 1 μM inhibitor; gel-based competitive ABPP; read-out: % Inhibition at 1 μM, D = PLA2G7
T4 construct: Proteomes (mouse brain membrane fraction or cell lysates); from tissue; host or cells: mouse brain membrane fraction (or cell lysates, not specified)
T4 sequence (Q60963 22-440): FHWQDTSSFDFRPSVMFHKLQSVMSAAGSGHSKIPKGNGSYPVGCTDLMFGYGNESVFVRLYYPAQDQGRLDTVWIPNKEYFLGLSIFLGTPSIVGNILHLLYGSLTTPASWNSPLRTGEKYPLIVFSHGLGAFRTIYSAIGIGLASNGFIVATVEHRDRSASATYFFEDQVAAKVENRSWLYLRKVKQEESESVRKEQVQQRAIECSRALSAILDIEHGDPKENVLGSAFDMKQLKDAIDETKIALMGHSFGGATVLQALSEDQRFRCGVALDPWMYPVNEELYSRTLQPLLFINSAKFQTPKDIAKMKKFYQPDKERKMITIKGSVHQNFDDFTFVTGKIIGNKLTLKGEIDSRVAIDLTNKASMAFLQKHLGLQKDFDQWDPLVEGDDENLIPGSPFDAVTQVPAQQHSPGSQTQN
Summary of the method: as §1

Compound	inhibition at 1 µM (MAGL) [%]	inhibition at 1 µM (ABHD6) [%]	inhibition at 1 µM (FAAH) [%]	inhibition at 1 µM (PLA2G7) [%]
N#Cc1cnn(C(=O)N2CCCN(Cc3cccc(Oc4ccccc4)c3)CC2)c1 [Example 299, 1-(4-(3-Phenoxybenzyl)-1,4-diazepane-1-carbonyl)-1H-pyrazole-4-carbonitrile]	> 75	> 75	> 75	< 25
N#Cc1cnn(C(=O)N2CCCN(Cc3cccc(OCc4ccccc4)c3)CC2)c1 [Example 300, 1-(4-(3-(Benzyloxy)benzyl)-1,4-diazepane-1-carbonyl)-1H-pyrazole-4-carbonitrile]	> 75	> 75	> 75	< 25
N#Cc1cnn(C(=O)N2CCCN(Cc3ccc(Oc4ccccc4)cc3)CC2)c1 [Example 301, 1-(4-(4-Phenoxybenzyl)-1,4-diazepane-1-carbonyl)-1H-pyrazole-4-carbonitrile]	> 75	> 75	> 75	< 25
Cc1cnn(C(=O)N2CCCN(Cc3ccc(OCc4ccccc4)cc3)CC2)c1 [Example 302, (4-(4-(Benzyloxy)benzyl)-1,4-diazepan-1-yl)(4-methyl-1H-pyrazol-1-yl)methanone]	25 to 75	< 25	< 25	< 25
N#Cc1cnn(C(=O)N2CCCN(Cc3ccc(OCc4ccccc4)cc3)CC2)c1 [Example 303, 1-(4-(4-(Benzyloxy)benzyl)-1,4-diazepane-1-carbonyl)-1H-pyrazole-4-carbonitrile]	> 75	< 25	> 75	< 25
